From patent US8182844B2, “Use of Clerodendrum sp. for treating tic disorders or psychiatric disorders with sensorimotor gating deficits” (priority 2010, dated 2012)

Test system: chronic motor tic disorder
Test: Case report: effect on tics in a child with chronic motor tic disorder
Type: in vivo, human
Details: single patient, before taking the leaf extract
Method: Withholding all medications for 1 day, they received examination of catecholamine metabolites in the cerebrospinal fluid.
Subsequently, this patient, started to take the extract of the grounded leaves of Clerodendrum inerme, which was prepared by mixing the leaves with water by a blender and collecting the juice after filtration as resulted. […] Honey was added because of the bitter taste. […] The follow-up IQ test had been arranged, but the patient was absent on the examination day.
This patient followed up regularly in NTUH pediatric outpatient clinic for their seizure problem.

Compound	effect of earlier anti-tic medications on the involuntary movements of the patient
Cc1nc2n(c(=O)c1CCN1CCC(c3noc4cc(F)ccc34)CC1)CCCC2 [Risperidone]	in vain
Clc1cccc(Cl)c1N=C1NCCN1 [clonidine]	without success
CN1C(=O)CN=C(c2ccccc2)c2cc(Cl)ccc21 [diazepam]	in vain
O=C(CCCN1CCC(O)(c2ccc(Cl)cc2)CC1)c1ccc(F)cc1 [haloperidol]	in vain
CCCN1C[C@H](CSC)C[C@@H]2c3cccc4[nH]cc(c34)C[C@H]21 [pergolide]	without success
CCN1CCCC1CNC(=O)c1cc(S(N)(=O)=O)ccc1OC (stereo not drawn) [sulpiride]	without success
biperidal	without success

Test system: methamphetamine-induced PPI disruption in mice
Test: Methamphetamine-induced disruption of prepulse inhibition of the startle response (PPI), dopamine hypothesis model
Type: in vivo, mouse
Details: diazepam, dose not given; methamphetamine 2 mg/kg; FIG. 2B
From the text: PPI is a neurophysiological phenomenon that the startle response to a stimulus, which could be a sound, an airpuff or a light, is inhibited if a stimulus with the same source but at weaker intensity prior to the stimulus was applied within a short interval. This is a fast neuroadaptative system to protect the living organisms from startle stimulation. It is believed to be a processing protection in a living organism that PPI serves as a sensorimotor gating, a pre-conscious regulator of attention, to reduce the startle response which is harmful to the information professing. […] PPI can be assessed by the motor response in either humans (measuring the eyeblink response by electromyograph) or animals (measuring the startle response).
Mice were i.p. injected by methamphetamine (2 mg/kg) to induce PPI disruption, as a schizophrenia model based on dopamine hypothesis. PPI was measured using the SR-LAB Startle Response System (San Diego Instrument, San Diego, Calif.). […] In the startle-alone trials, the basic auditory startle was measured, and in the prepulse-plus-startle trials, the amount of inhibition of normal startle induced by the prepulse was measured and expressed as a percentage of the basic startle. In the prepulse-alone trials, the normal response to a weak noise was measured as a control.

Compound	rescue of methamphetamine-induced PPI disruption
CN1C(=O)CN=C(c2ccccc2)c2cc(Cl)ccc21 [diazepam]	did not rescue

Same assay, conditions: methamphetamine 2 mg/kg i.p. alone, without extract; 71 db prepulse; control mice 55.6±3.5%

Compound	PPI (inhibition of startle response to 115 db by prepulse)
CN[C@@H](C)Cc1ccccc1 [methamphetamine]	42.4±4.1%
